# Laboratory results: US8461183B2, “PPAR agonist compounds, preparation and uses” (Genfit, priority 2008, dated 2013)
# pEC50: −log10 of the molar value.
# Tests used:
# hPPARγ = molecular target: T1, hPPARγ (Homo sapiens, UniProt P37231); experiment: Gal4-hPPARγ chimera transactivation (luciferase) in COS-7 cells; assay type: cell-based; settings: 24 hours; for pEC50: luciferase, read-out: PPARγ EC50; for Emax: relative to maximum activation obtained with rosiglitazone, read-out: PPARγ TOP % (maximum activation)
# T1 construct: corresponding to the DEF domains (structural elements of the promoter of the PPARs: D=hinge, EF=ligand fixation domain and AF2 fixation site); expressed in transfected cells; host or cells: COS-7 (monkey kidney fibroblasts)
# T1 sequence (P37231 238-503 limits assumed): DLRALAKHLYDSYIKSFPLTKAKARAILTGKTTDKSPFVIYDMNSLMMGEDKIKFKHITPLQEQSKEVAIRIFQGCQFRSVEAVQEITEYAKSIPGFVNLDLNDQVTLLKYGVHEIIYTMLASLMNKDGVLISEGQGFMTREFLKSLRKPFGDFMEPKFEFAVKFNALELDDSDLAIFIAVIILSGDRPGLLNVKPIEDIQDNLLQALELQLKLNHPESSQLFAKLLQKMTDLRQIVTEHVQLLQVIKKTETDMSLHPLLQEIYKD
# Summary of the method: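 COS-7 cells transfected with Gal4-DBD fused to human PPARγ or PPARδ DEF (hinge/ligand-binding) domain plus Gal4(RE)_TkpGL3 luciferase reporter (1:10).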
# [1] = tested on: PPARα target genes (ACO, PDK-4, Apo CIII) in liver; experiment: Hepatic expression of PPARα target genes (quantitative RT-PCR) in the ApoE2/E2 mouse; assay type: in vivo; settings: 10 and 100 mpk, 7 days, normalized to 36B4
# Source text: The PPARα agonist properties previously measured in vitro should be translated at the hepatic level by a change in the level of expression of the target genes directly under the control of the PPARα receptor: the genes that were studied in these experiments are those coding for ACO (a key enzyme in the mechanism of β-oxidation of fatty acids), PDK-4 (an enzyme of carbohydrate metabolism) and Apo CIII (apolipoprotein involved in lipid metabolism). This change in gene expression after treatment with the compounds according to the invention is therefore also an indicator of their hypolipemic character.
# Apo E2/E2 transgenic mice were kept in a cycle of light and darkness of 12 hours/12 hours at a constant temperature of 20±3° C. After acclimation for one week, the mice were weighed and put into groups of 6 animals selected in such a way that the distribution of their bodyweight and of their plasma lipid values determined first before the experiment are uniform. The compounds tested were suspended in carboxymethylcellulose (Sigma C4888) and administered at the chosen dose by stomach tube, at a rate of once a day for 7 days at the chosen dose. The animals had free access to water and food. At the end of the experiment, the animals were anesthetized after fasting for 4 hours, a blood sample was taken on anticoagulant (EDTA), then the mice were weighed and euthanased. The plasma was separated by centrifugation at 3000 rev/min for 20 minutes, and the samples were stored at +4° C. for the biochemical assays. Samples of liver were taken and frozen immediately in liquid nitrogen and then stored at −80° C. for subsequent analyses.
# Total RNA was extracted from fragments of liver using the NucleoSpin® 96 RNA kit (Macherey Nagel, Hoerdt, France) according to the manufacturer's instructions. 1 μg of total RNA (quantified using the Ribogreen RNA quantification kit (Molecular Probes)) was then reverse transcribed to complementary DNA by a reaction of 1 hour at 37° C. in a total volume of 20 μl containing buffer 1× (Sigma), 1.5 mM of DTT, 0.18 mM of dNTPs (Promega), 200 ng of pdN6 (Amersham), 30U of RNase inhibitor (Sigma) and 1 μl of MMLV-RT (Sigma).
# The quantitative PCR experiments were performed using the MyiQ Single-Color Real-Time PCR Detection System (Biorad, Marnes-la-Coquette, France) and were carried out using the iQ SYBR Green Supermix kit according to the supplier's recommendations, in 96-well plates, on 5 μl of diluted reverse transcription reaction mixtures, with a hybridization temperature of 55° C. Specific primer pairs of the genes under investigation were used:
# The amount of fluorescence emitted is directly proportional to the amount of complementary DNA present at the start of the reaction and amplified during PCR. For each target investigated, a range is prepared by successive dilutions of a pool consisting of a few μl of different reverse transcription reactions. The relative levels of expression of each target are thus determined using the curves of efficacy obtained with the scale points.
# The levels of expression of the genes of interest were then normalized relative to the level of expression of the 36B4 reference gene (whose specific primers are: […]
# The induction factor, i.e. the ratio of the relative signal (induced by the compound according to the invention) to the mean of the relative values of the control group, was then calculated for each sample. The higher this factor, the more the compound has a character of activation of gene expression. The final result is represented as the mean of the induction values in each experimental group.
pEC50 (hPPARγ),Emax (hPPARγ),Structure (SMILES),hepatic expression of gene coding for ACO [1],hepatic expression of gene coding for ApoCIII [1],hepatic expression of gene coding for PDK-4 [1]
4.91,39.1%,"COc1nc(-c2ccccc2)ccc1COc1ccc(OCC(=O)O)cc1 [Cpd 2, 2-(4-((2-methoxy-6-phenylpyridin-3-yl)methoxy)phenoxy)ethanoic acid]",hepatic overexpression,significant inhibition,hepatic overexpression
4.75,70.5%,"COc1nc(-c2ccccc2)ccc1CNc1ccc(OCC(=O)O)cc1 [Cpd 4, 2-(4-(((2-methoxy-6-phenylpyridin-3yl)methyl)amino)phenoxy)ethanoic acid]",hepatic overexpression,significant inhibition,hepatic overexpression
5.89,87%,"COc1nc(-c2ccccc2)ccc1CNc1ccc(CCC(=O)O)cc1 [Cpd 19, 3-(4-(((2-methoxy-6-phenylpyridin-3-yl)methyl)amino)phenyl)propanoic acid]",,,
5.35,65.7%,"COc1nc(-c2ccc(C(F)(F)F)cc2)ccc1COc1ccc(OCC(=O)O)cc1 [Cpd 24, 2-(4-((2-methoxy-6-(4-(trifluoromethyl)phenyl)pyridin-3-yl)methoxy)-phenoxy)ethanoic acid]",,,
